# Experimental data reported in PubChem BioAssay (NCI).
#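 Compound exposure: 48 hours, 5 concentrations, 96-well plates. GI50 = concentration required for 50% inhibition of growth. Definition used: TGI = concentration required for complete inhibition of growth.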
# Key:
# Experiment in all cases: NCI-60 cell line screen, 48 h
# HL-60(TB) leukemia = test system: HL-60(TB) leukemia
# MDA-MB-231 breast = test system: MDA-MB-231 breast
# U251 CNS = test system: U251 CNS
# MALME-3M melanoma = test system: MALME-3M melanoma
# NCI-H23 lung = test system: NCI-H23 lung
# UO-31 renal = test system: UO-31 renal
# OVCAR-8 ovarian = test system: OVCAR-8 ovarian
# HOP-62 NSCLC = test system: HOP-62 NSCLC
# MOLT-4 leukemia = test system: MOLT-4 leukemia
# KM12 colon = test system: KM12 colon
# NCI-H522 lung = test system: NCI-H522 lung
# A549 NSCLC = test system: A549 NSCLC
# HCT-15 colon = test system: HCT-15 colon
# SF-268 CNS = test system: SF-268 CNS
# LOX IMVI melanoma = test system: LOX IMVI melanoma
# EKVX NSCLC = test system: EKVX NSCLC
# K-562 leukemia = test system: K-562 leukemia
# DU-145 prostate = test system: DU-145 prostate
# HCC-2998 colon = test system: HCC-2998 colon
# MDA-MB-468 breast = test system: MDA-MB-468 breast
# SF-539 CNS = test system: SF-539 CNS
# SK-MEL-2 melanoma = test system: SK-MEL-2 melanoma
# SW-620 colon = test system: SW-620 colon
# BT-549 breast = test system: BT-549 breast
# A498 renal = test system: A498 renal
# SNB-19 CNS = test system: SNB-19 CNS
# T-47D breast = test system: T-47D breast
# SR leukemia = test system: SR leukemia
# HT29 colon = test system: HT29 colon
# COLO 205 colon = test system: COLO 205 colon
# HCT-116 colon = test system: HCT-116 colon
# UACC-62 melanoma = test system: UACC-62 melanoma
# M14 melanoma = test system: M14 melanoma
# MCF7 breast = test system: MCF7 breast
# SNB-75 CNS = test system: SNB-75 CNS
# OVCAR-5 ovarian = test system: OVCAR-5 ovarian
# PC-3 prostate = test system: PC-3 prostate
# HS 578T breast = test system: HS 578T breast
# TK-10 renal = test system: TK-10 renal
# HOP-92 NSCLC = test system: HOP-92 NSCLC
# NCI-H226 lung = test system: NCI-H226 lung
# MDA-MB-435 = test system: MDA-MB-435
# UACC-257 melanoma = test system: UACC-257 melanoma
# RXF 393 renal = test system: RXF 393 renal
# OVCAR-3 ovarian = test system: OVCAR-3 ovarian
# NCI-H460 lung = test system: NCI-H460 lung
# 786-0 renal = test system: 786-0 renal
# SF-295 CNS = test system: SF-295 CNS
# OVCAR-4 ovarian = test system: OVCAR-4 ovarian
# ACHN renal = test system: ACHN renal
# IGROV1 ovarian = test system: IGROV1 ovarian
# SK-MEL-5 melanoma = test system: SK-MEL-5 melanoma
# SN12C renal = test system: SN12C renal
# CCRF-CEM leukemia = test system: CCRF-CEM leukemia
# SK-MEL-28 melanoma = test system: SK-MEL-28 melanoma
# SK-OV-3 ovarian = test system: SK-OV-3 ovarian
# RPMI-8226 leukemia = test system: RPMI-8226 leukemia
# CAKI-1 renal = test system: CAKI-1 renal
structure (smiles),measurement,setting,value
O=C(/C=C/c1cccc(Br)c1)c1nc2ccccc2n1Cc1ccc(Br)cc1,GI50,HL-60(TB) leukemia,1.75 µM
same,TGI,HL-60(TB) leukemia,5.12 µM
same,GI50,MDA-MB-231 breast,2.06 µM
same,TGI,MDA-MB-231 breast,4.61 µM
same,GI50,U251 CNS,1.7 µM
same,TGI,U251 CNS,3.38 µM
same,GI50,MALME-3M melanoma,1.91 µM
same,TGI,MALME-3M melanoma,3.97 µM
same,GI50,NCI-H23 lung,1.77 µM
same,TGI,NCI-H23 lung,3.99 µM
same,GI50,UO-31 renal,1.37 µM
same,TGI,UO-31 renal,2.78 µM
same,GI50,OVCAR-8 ovarian,2.15 µM
same,TGI,OVCAR-8 ovarian,5.71 µM
same,GI50,HOP-62 NSCLC,2.16 µM
same,TGI,HOP-62 NSCLC,4.76 µM
same,GI50,MOLT-4 leukemia,2.11 µM
same,TGI,MOLT-4 leukemia,9.16 µM
same,GI50,KM12 colon,2.53 µM
same,TGI,KM12 colon,7.44 µM
same,GI50,NCI-H522 lung,1.73 µM
same,TGI,NCI-H522 lung,3.48 µM
same,GI50,A549 NSCLC,3.97 µM
same,TGI,A549 NSCLC,> 100 µM
same,GI50,HCT-15 colon,1.56 µM
same,TGI,HCT-15 colon,3.19 µM
same,GI50,SF-268 CNS,4.93 µM
same,TGI,SF-268 CNS,71.7 µM
same,GI50,LOX IMVI melanoma,1.5 µM
same,TGI,LOX IMVI melanoma,2.9 µM
same,GI50,EKVX NSCLC,2.4 µM
same,TGI,EKVX NSCLC,7.64 µM
same,GI50,K-562 leukemia,2.6 µM
same,TGI,K-562 leukemia,> 100 µM
same,GI50,DU-145 prostate,4.1 µM
same,TGI,DU-145 prostate,15.9 µM
same,GI50,HCC-2998 colon,1.69 µM
same,TGI,HCC-2998 colon,3.12 µM
same,GI50,MDA-MB-468 breast,1.87 µM
same,TGI,MDA-MB-468 breast,3.85 µM
same,GI50,SF-539 CNS,1.99 µM
same,TGI,SF-539 CNS,3.92 µM
same,GI50,SK-MEL-2 melanoma,1.66 µM
same,TGI,SK-MEL-2 melanoma,3.29 µM
same,GI50,SW-620 colon,1.6 µM
same,TGI,SW-620 colon,3.59 µM
same,GI50,BT-549 breast,1.77 µM
same,TGI,BT-549 breast,3.55 µM
same,GI50,A498 renal,13.5 µM
same,TGI,A498 renal,28.1 µM
same,GI50,SNB-19 CNS,1.77 µM
same,TGI,SNB-19 CNS,3.64 µM
same,GI50,T-47D breast,2.33 µM
same,TGI,T-47D breast,9.62 µM
same,GI50,SR leukemia,2.53 µM
same,TGI,SR leukemia,8.96 µM
same,GI50,HT29 colon,2.13 µM
same,TGI,HT29 colon,4.9 µM
same,GI50,COLO 205 colon,1.99 µM
same,TGI,COLO 205 colon,4.11 µM
same,GI50,HCT-116 colon,1.67 µM
same,TGI,HCT-116 colon,3.14 µM
same,GI50,UACC-62 melanoma,1.54 µM
same,TGI,UACC-62 melanoma,3.28 µM
same,GI50,M14 melanoma,1.77 µM
same,TGI,M14 melanoma,3.59 µM
same,GI50,MCF7 breast,1.7 µM
same,TGI,MCF7 breast,5.71 µM
same,GI50,SNB-75 CNS,3.4 µM
same,TGI,SNB-75 CNS,25.2 µM
same,GI50,OVCAR-5 ovarian,2.06 µM
same,TGI,OVCAR-5 ovarian,4.08 µM
same,GI50,PC-3 prostate,3.3 µM
same,TGI,PC-3 prostate,14.9 µM
same,GI50,HS 578T breast,3.71 µM
same,TGI,HS 578T breast,> 100 µM
same,GI50,TK-10 renal,3.07 µM
same,TGI,TK-10 renal,11.6 µM
same,GI50,HOP-92 NSCLC,1.6 µM
same,TGI,HOP-92 NSCLC,6.46 µM
same,GI50,NCI-H226 lung,2.45 µM
same,TGI,NCI-H226 lung,6.13 µM
same,GI50,MDA-MB-435,2.01 µM
same,TGI,MDA-MB-435,4.79 µM
same,GI50,UACC-257 melanoma,3.04 µM
same,TGI,UACC-257 melanoma,12 µM
same,GI50,RXF 393 renal,1.54 µM
same,TGI,RXF 393 renal,2.95 µM
same,GI50,OVCAR-3 ovarian,1.56 µM
same,TGI,OVCAR-3 ovarian,3.3 µM
same,GI50,NCI-H460 lung,1.77 µM
same,TGI,NCI-H460 lung,3.87 µM
same,GI50,786-0 renal,1.86 µM
same,TGI,786-0 renal,3.7 µM
same,GI50,SF-295 CNS,2.07 µM
same,TGI,SF-295 CNS,5.11 µM
same,GI50,OVCAR-4 ovarian,4.07 µM
same,TGI,OVCAR-4 ovarian,> 100 µM
same,GI50,ACHN renal,2.41 µM
same,TGI,ACHN renal,6.53 µM
same,GI50,IGROV1 ovarian,2.16 µM
same,TGI,IGROV1 ovarian,5.4 µM
same,GI50,SK-MEL-5 melanoma,1.7 µM
same,TGI,SK-MEL-5 melanoma,3.55 µM
same,GI50,SN12C renal,3.42 µM
same,TGI,SN12C renal,12.9 µM
same,GI50,CCRF-CEM leukemia,2.09 µM
same,TGI,CCRF-CEM leukemia,> 100 µM
same,GI50,SK-MEL-28 melanoma,1.82 µM
same,TGI,SK-MEL-28 melanoma,3.68 µM
same,GI50,SK-OV-3 ovarian,14.4 µM
same,TGI,SK-OV-3 ovarian,> 100 µM
same,GI50,RPMI-8226 leukemia,2.39 µM
same,TGI,RPMI-8226 leukemia,8.27 µM
same,GI50,CAKI-1 renal,1.85 µM
same,TGI,CAKI-1 renal,5.35 µM
